Molecules are shown by their SMILES. Like-named read-outs stand apart in the source and are kept apart here.

Experiment [1] addresses human orexin-1 receptor (Homo sapiens (Human), UniProt O43613). The experiment in a line: In vitro assay: intracellular calcium measurements (FLIPR), antagonistic activity. Type of experiment: cell-based. To be noted: CHO cells, 3 nM orexin-A, marked values are geometric means of n = 2-6, read-out: IC50 OX1. As for the experimental part: (§1) In Vitro Assay: Intracellular Calcium Measurements:
(§2) Chinese hamster ovary (CHO) cells expressing the human orexin-1 receptor and the human orexin-2 receptor, respectively, are grown in culture medium (Ham F-12 with L-Glutamine) containing 300 µg/ml G418, 100 U/ml penicillin, 100 µg/ml streptomycin and 10% heat inactivated fetal calf serum (FCS). The cells are seeded at 20,000 cells/well into 384-well black clear bottom sterile plates (Greiner). The seeded plates are incubated overnight at 37° C. in 5% CO2.
(§3) Fluorescence is measured for each well at 1 second intervals, and the height of each fluorescence peak is compared to the height of the fluorescence peak induced by 3 nM orexin-A with vehicle in place of antagonist. […] Optimized conditions were achieved by adjustment of pipetting speed and cell splitting regime. The calculated IC50 values may fluctuate depending on the daily cellular assay performance. Fluctuations of this kind are known to those skilled in the art.

Experiment [2] has as its target human orexin-2 receptor (Homo sapiens (Human), UniProt O43614). The description is as above. Type of experiment: cell-based. To be noted: CHO cells, 3 nM orexin-A, compound incubation 120 min; marked values are geometric means of n = 2-6; read-out: IC50 OX2. The procedure:
as §1, §2, §3

Setting [3] is: compound incubation time of 10 min.

Chain of human orexin-1 receptor (O43613 whole entry): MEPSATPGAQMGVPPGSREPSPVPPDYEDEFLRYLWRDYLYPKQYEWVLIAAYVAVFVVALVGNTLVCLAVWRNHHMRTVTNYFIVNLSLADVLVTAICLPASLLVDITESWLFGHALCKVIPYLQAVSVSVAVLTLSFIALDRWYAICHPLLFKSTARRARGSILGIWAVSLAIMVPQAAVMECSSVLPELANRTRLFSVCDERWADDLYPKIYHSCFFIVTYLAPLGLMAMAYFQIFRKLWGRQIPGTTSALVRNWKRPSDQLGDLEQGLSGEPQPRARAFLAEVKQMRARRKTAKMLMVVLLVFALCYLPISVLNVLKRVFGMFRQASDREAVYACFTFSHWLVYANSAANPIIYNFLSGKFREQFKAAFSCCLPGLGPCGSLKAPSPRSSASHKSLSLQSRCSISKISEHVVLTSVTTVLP
Chain of human orexin-2 receptor (O43614 whole entry): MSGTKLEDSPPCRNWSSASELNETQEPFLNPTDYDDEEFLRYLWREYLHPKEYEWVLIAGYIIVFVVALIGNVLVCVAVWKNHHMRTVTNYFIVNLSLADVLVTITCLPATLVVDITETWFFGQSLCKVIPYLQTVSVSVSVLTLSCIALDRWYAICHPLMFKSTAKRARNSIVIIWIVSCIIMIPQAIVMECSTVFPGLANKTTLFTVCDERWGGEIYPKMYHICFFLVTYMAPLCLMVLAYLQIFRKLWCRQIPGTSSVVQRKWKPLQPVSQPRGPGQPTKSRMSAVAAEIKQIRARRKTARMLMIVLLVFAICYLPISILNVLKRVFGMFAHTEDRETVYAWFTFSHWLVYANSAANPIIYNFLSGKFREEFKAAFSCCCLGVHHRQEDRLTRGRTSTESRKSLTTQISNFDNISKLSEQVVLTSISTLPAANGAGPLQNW

In the case of `COc1cccc(F)c1[C@@H]1C[C@H](O)C(=O)N1Cc1ccc(OC(F)(F)F)cc1` (racemic) [Example 265, rac-(3S*,5S*)-5-(2-fluoro-6-methoxyphenyl)-3-hydroxy-1-(4-(trifluoromethoxy)benzyl)pyrrolidin-2-one], the IC50 in experiment [1] (setting [3]) turned out to be 0.73 µM.

In the case of `COc1cccc(F)c1[C@@H]1C[C@@H](O)C(=O)N1Cc1ccc(OC(F)(F)F)cc1` (racemic) [Example 293, rac-(3R*,5S*)-5-(2-fluoro-6-methoxyphenyl)-3-hydroxy-1-(4-(trifluoromethoxy)benzyl)pyrrolidin-2-one], in experiment [1] (compound incubation 120 min), the IC50 amounted to 2.75 µM.

As for `COc1cccc(Cl)c1[C@@H]1C[C@@H](O)C(=O)N1Cc1ccc(OC(F)(F)F)cc1` (racemic) [Example 294, rac-(3R*,5S*)-5-(2-chloro-6-methoxyphenyl)-3-hydroxy-1-(4-(trifluoromethoxy)benzyl)pyrrolidin-2-one], the IC50 in experiment [1] (compound incubation 120 min) was 2.44 µM.

For the compound `COc1cc(F)ccc1[C@@H]1C[C@@H](O)C(=O)N1Cc1ccc(OC(F)(F)F)cc1` (racemic) [Example 296, rac-(3R*,5S*)-5-(4-fluoro-2-methoxyphenyl)-3-hydroxy-1-(4-(trifluoromethoxy)benzyl)pyrrolidin-2-one], in experiment [2], the IC50 turned out to be 2.21 µM.

On to `CCOc1ccccc1[C@@H]1C[C@H](F)C(=O)N1Cc1ccc(OC(F)(F)F)cc1` (racemic) [Example 300, rac-(3S*,5S*)-5-(2-ethoxyphenyl)-3-fluoro-1-(4-(trifluoromethoxy)benzyl)pyrrolidin-2-one], for which the IC50 in experiment [2] turned out to be 0.098 µM.

Take `O=C1[C@@H](Cl)C[C@@H](c2cccc3c2OCCO3)N1Cc1ccc(OC(F)(F)F)cc1` (racemic) [Example 307, rac-(3S*,5S*)-3-chloro-5-(2,3-dihydrobenzo[b][1,4]dioxin-5-yl)-1-(4-(trifluoromethoxy)benzyl)pyrrolidin-2-one]: the IC50 in experiment [1] (compound incubation 120 min) came to 0.563 µM.

Take `COc1ccc2ccccc2c1[C@@H]1C[C@H](F)C(=O)N1Cc1ccc(OC(F)(F)F)cc1` (racemic) [Example 315, rac-(3S*,5S*)-3-fluoro-5-(2-methoxynaphthalen-1-yl)-1-(4-(trifluoromethoxy)benzyl)pyrrolidin-2-one]: in experiment [1] (compound incubation 120 min), the IC50 was found to be 1.2 µM.

Consider `COc1c(F)ccc(F)c1[C@@H]1C[C@@H](Cl)C(=O)N1Cc1ccc(OC(F)(F)F)cc1` (racemic) [Example 317, rac-(3R*,5S*)-3-chloro-5-(3,6-difluoro-2-methoxyphenyl)-1-(4-(trifluoromethoxy)benzyl)pyrrolidin-2-one], for which the IC50 in experiment [1] (compound incubation 120 min) was found to be 1.07 µM.

As to `COc1c(F)ccc(F)c1[C@@H]1C[C@H](Cl)C(=O)N1Cc1ccc(OC(F)(F)F)cc1` (racemic) [Example 320, rac-(3S*,5S*)-3-chloro-5-(3,6-difluoro-2-methoxyphenyl)-1-(4-(trifluoromethoxy)benzyl)pyrrolidin-2-one], the IC50 in experiment [1] (compound incubation 120 min) is 1.05 µM.

For the compound `O=C1[C@H](Cl)C[C@@H](c2cccc3c2OCCO3)N1Cc1ccc(OC(F)(F)F)cc1` (racemic) [Example 322, rac-(3R*,5S*)-3-chloro-5-(2,3-dihydrobenzo[b][1,4]dioxin-5-yl)-1-(4-(trifluoromethoxy)benzyl)pyrrolidin-2-one], the IC50 in experiment [1] (compound incubation 120 min) is 1.08 µM.

Consider `COc1cccc(C)c1[C@@H]1C[C@H](F)C(=O)N1Cc1ccc(OC(F)(F)F)cc1` (racemic) [Example 325, rac-(3S*,5S*)-3-fluoro-5-(2-methoxy-6-methylphenyl)-1-(4-(trifluoromethoxy)benzyl)pyrrolidin-2-one], for which the IC50 in experiment [1] (compound incubation 120 min) came out at 1.38 µM.

`CCOc1c(F)cccc1[C@@H]1C[C@@H](Cl)C(=O)N1Cc1ccc(OC(F)(F)F)cc1` (racemic) [Example 327, rac-(3R*,5S*)-3-chloro-5-(2-ethoxy-3-fluorophenyl)-1-(4-(trifluoromethoxy)benzyl)pyrrolidin-2-one]: the IC50 in experiment [1] (compound incubation 120 min) is 1.06 µM.

On to `COc1ccc(F)c(OC)c1[C@@H]1C[C@@H](Cl)C(=O)N1Cc1ccc(OC(F)(F)F)cc1` (racemic) [Example 328, rac-(3R*,5S*)-3-chloro-5-(3-fluoro-2,6-dimethoxyphenyl)-1-(4-(trifluoromethoxy)benzyl)pyrrolidin-2-one], for which the IC50 in experiment [1] (compound incubation 120 min) is 0.739 µM.

As for `CCOc1c(F)cccc1[C@@H]1C[C@H](Cl)C(=O)N1Cc1ccc(OC(F)(F)F)cc1` (racemic) [Example 329, rac-(3S*,5S*)-3-chloro-5-(2-ethoxy-3-fluorophenyl)-1-(4-(trifluoromethoxy)benzyl)pyrrolidin-2-one], in experiment [1] (compound incubation 120 min), the half-maximal inhibitory concentration (IC50) turned out to be 0.885 µM.

On to `COc1ccc(F)c(OC)c1[C@@H]1C[C@H](Cl)C(=O)N1Cc1ccc(OC(F)(F)F)cc1` (racemic) [Example 330, rac-(3S*,5S*)-3-chloro-5-(3-fluoro-2,6-dimethoxyphenyl)-1-(4-(trifluoromethoxy)benzyl)pyrrolidin-2-one], for which the IC50 in experiment [1] (compound incubation 120 min) worked out at 0.227 µM.

For `CCOc1ccc(F)c(F)c1[C@@H]1C[C@H](Cl)C(=O)N1Cc1ccc(OC(F)(F)F)cc1` (racemic) [Example 339, rac-(3S*,5S*)-3-chloro-5-(6-ethoxy-2,3-difluorophenyl)-1-(4-(trifluoromethoxy)benzyl)pyrrolidin-2-one], the IC50 in experiment [1] (compound incubation 120 min) is 0.816 µM.

Regarding `CCOc1cc(F)ccc1[C@@H]1C[C@H](F)C(=O)N1Cc1ccc(OC(F)(F)F)cc1` (racemic) [Example 344, rac-(3S*,5S*)-5-(2-ethoxy-4-fluorophenyl)-3-fluoro-1-(4-(trifluoromethoxy)benzyl)pyrrolidin-2-one], in experiment [1] (compound incubation 120 min), the IC50 is 1.8 µM.

Regarding `CCOc1ccc(F)c(F)c1[C@@H]1C[C@@H](Cl)C(=O)N1Cc1ccc(OC(F)(F)F)cc1` (racemic) [Example 346, rac-(3R*,5S*)-3-chloro-5-(6-ethoxy-2,3-difluorophenyl)-1-(4-(trifluoromethoxy)benzyl)pyrrolidin-2-one], the IC50 in experiment [1] (compound incubation 120 min) was found to be 2.85 µM.

As to `COc1cccc(OC)c1[C@@H]1C[C@@H](F)C(=O)N1Cc1ccc2oc3ccccc3c2c1` (racemic) [Example 368, rac-(3R*,5S*)-1-(dibenzo[b,d]furan-2-ylmethyl)-5-(2,6-dimethoxyphenyl)-3-fluoropyrrolidin-2-one], the IC50 in experiment [1] (compound incubation 120 min) turned out to be 0.023 µM.

`CC(C)Oc1cccc(F)c1[C@@H]1C[C@H](F)C(=O)N1Cc1ccc(OC(F)(F)F)cc1` (racemic) [Example 407, rac-(3S*,5S*)-3-fluoro-5-(2-fluoro-6-isopropoxyphenyl)-1-(4-(trifluoromethoxy)benzyl)pyrrolidin-2-one]: in experiment [1] (compound incubation 120 min), the IC50 was 0.678 µM.

As for `CC(C)Oc1cccc(F)c1[C@@H]1C[C@H](Cl)C(=O)N1Cc1ccc(OC(F)(F)F)cc1` (racemic) [Example 409, rac-(3S*,5S*)-3-chloro-5-(2-fluoro-6-isopropoxyphenyl)-1-(4-(trifluoromethoxy)benzyl)pyrrolidin-2-one], the IC50 in experiment [1] (compound incubation 120 min) was found to be 0.323 µM.

Turning to `CCOc1cccc(Cl)c1[C@@H]1C[C@@H](O)C(=O)N1Cc1ccc(OC(F)(F)F)cc1` (racemic) [Example 427, rac-(3R*,5S*)-5-(2-chloro-6-ethoxyphenyl)-3-hydroxy-1-(4-(trifluoromethoxy)benzyl)pyrrolidin-2-one], in experiment [1] (compound incubation 120 min), the IC50 stood at 1.23 µM.

As for `COc1cccc(F)c1[C@@H]1C[C@@H](O)C(=O)N1Cc1cccc(OC(F)(F)F)c1` (racemic) [Example 430, rac-(3R*,5S*)-5-(2-fluoro-6-methoxyphenyl)-3-hydroxy-1-(3-(trifluoromethoxy)benzyl)pyrrolidin-2-one], the IC50 in experiment [1] (compound incubation 120 min) was 5.36 µM.

As for `CCOc1cccc(F)c1[C@@H]1C[C@H](F)C(=O)N1Cc1ccc(OC(F)(F)F)c(Cl)c1` (racemic) [Example 461, rac-(3S*,5S*)-1-(3-chloro-4-(trifluoromethoxy)benzyl)-5-(2-ethoxy-6-fluorophenyl)-3-fluoropyrrolidin-2-one], in experiment [1] (compound incubation 120 min), the IC50 was 0.724 µM.

For the compound `CCOc1cccc(F)c1[C@@H]1C[C@H](Cl)C(=O)N1Cc1ccc(OC(F)(F)F)c(Cl)c1` (racemic) [Example 462, rac-(3S*,5S*)-3-chloro-1-(3-chloro-4-(trifluoromethoxy)benzyl)-5-(2-ethoxy-6-fluorophenyl)pyrrolidin-2-one], in experiment [1] (compound incubation 120 min), the IC50 was found to be 0.405 µM.

Consider `COc1cccc(OC)c1C1CCCC(=O)N1Cc1ccc2ccccc2n1` (stereo not drawn) [Example 4, 6-(2,6-dimethoxyphenyl)-1-(quinolin-2-ylmethyl)piperidin-2-one], for which the IC50 in experiment [1] (compound incubation 120 min) came out at 0.174 µM.

Regarding `COc1cccc(OC)c1C1CCCC(=O)N1Cc1ccc2ccccc2n1` (stereo not drawn) [Example 4a, 6-(2,6-dimethoxyphenyl)-1-(quinolin-2-ylmethyl)piperidin-2-one], the IC50 in experiment [1] (compound incubation 120 min) stood at 0.016 µM.

In the case of `COc1cccc(OC)c1C1CCCC(=O)N1Cc1ccc2ccccc2n1` (stereo not drawn) [Example 4b, 6-(2,6-dimethoxyphenyl)-1-(quinolin-2-ylmethyl)piperidin-2-one], the IC50 in experiment [1] (compound incubation 120 min) worked out at 1.42 µM.

As to `COc1cccc(OC)c1C1CCCC(=O)N1Cc1cnc(OC(F)F)c(C2CC2)c1` (stereo not drawn) [Example 70, 1-((5-cyclopropyl-6-(difluoromethoxy)pyridin-3-yl)methyl)-6-(2,6-dimethoxyphenyl)piperidin-2-one], in experiment [1] (compound incubation 120 min), the IC50 came out at 1.78 µM.

For `CCOc1cccc(OCC)c1C1CCCC(=O)N1Cc1ccc(OC(F)(F)F)cc1` (stereo not drawn) [Example 231, 6-(2,6-diethoxyphenyl)-1-(4-(trifluoromethoxy)benzyl)piperidin-2-one], the IC50 in experiment [1] (setting [3]) worked out at 0.55 µM.

The values are drawn from patent US9242970B2 (ACTELION PHARMACEUTICALS LTD., priority 2010, dated 2016).
